Measured values from patent US4327097A, “Novel penicillins” (Toyama Chemical Co., Ltd., priority 1974, dated 1982).
Values after ≈ are worked out from the molar mass of the structure shown. Structures can show the parent of a compound that is named as a salt.

Columns and labels:
Format in all cases: cell-based
Escherichia coli NIHJ = test: MIC, plate method, standard strains; settings: unit assumed; for MIC Esche--richin coil NIHJ: Table 3, standard strain
Procedure: (§1) The minimum inhibitory concentration (MIC) was determined by the plate method disclosed in "Chemotherapy" (Japan), Vol. 16, (1968), pages 98-99. The culture medium used was a Heart infusion agar (pH 7.4). The number of the cells per plate used in the inoculum was 10^4 (10^6 cells/ml).

Klebsiella pneumoniae [1] = test: MIC, plate method, standard strains; settings: unit assumed
Procedure: as §1

Proteus vulgaris 3027 = test: MIC, plate method, standard strains; settings: unit assumed
Procedure: as §1

[2] = system: Staphylococcus aureus 209p; test: MIC, plate method, standard strains; settings: Table 3, standard strain, Heart infusion agar pH 7.4; unit assumed
Procedure: as §1

Staphylococcus aureus = test: MIC against clinical isolates; settings: Table 5-1, clinical isolate; unit assumed
Escherichia coli = test: MIC against clinical isolates; settings: unit assumed
Shigella flexneri = test: MIC against clinical isolates; settings: Table 5-5, clinical isolate; unit assumed
Procedure: as §1
(§2) MIC was determined in the same manner as in the preceding paragraph (1).

Shigella sonnei = test: MIC against clinical isolates; settings: Table 5-5, clinical isolate; unit assumed
Procedure: as §1, §2

[3] = system: Pseudomonas aeruginosa I.F.O.; test: MIC, plate method, standard strains; settings: Table 3, standard strain; unit assumed
Procedure: as §1

Pseudomonas aeruginosa = test: MIC against clinical isolates; settings: unit assumed
Klebsiella pneumoniae [4] = test: MIC against clinical isolates; settings: Table 6-4, clinical isolate; unit assumed

## CCCCN1CCN(C(=O)N[C@@H](C(=O)N[C@@H]2C(=O)N3[C@@H]2SC(C)(C)[C@@H]3C(=O)O)c2ccccc2)C(=O)C1 [Compound 14]
Escherichia coli NIHJ
  MIC Esche--richin coil NIHJ: < 1.57 µg/mL
Klebsiella pneumoniae [1]; Table 3, standard strain
  MIC Klebsiella pneumoniae: 3.13 µg/mL (≈ 5.89 µM)
Proteus vulgaris 3027; Table 3, standard strain
  MIC Proteus vulgaris 3027: < 1.57 µg/mL
[2]
  MIC Staphylococcus aureus 209p: < 1.57 µg/mL
Staphylococcus aureus
  MIC Staphylococcus aureus F-2: 1.57 µg/mL (≈ 2.95 µM)
  MIC Staphylococcus aureus F-4: 6.25 µg/mL (≈ 11.8 µM)
  MIC Staphylococcus aureus MS 8588: 3.13 µg/mL (≈ 5.89 µM)
  MIC Staphylococcus aureus MS 8596: 3.13 µg/mL (≈ 5.89 µM)
  MIC Staphylococcus aureus MS 8684: 3.13 µg/mL (≈ 5.89 µM)
  MIC Staphylococcus aureus MS 8713: 3.13 µg/mL (≈ 5.89 µM)
Escherichia coli; Table 5-2, clinical isolate
  MIC Escherichia coli GN 3435: 6.25 µg/mL (≈ 11.8 µM)
  MIC Escherichia coli GN 3452: 6.25 µg/mL (≈ 11.8 µM)
  MIC Escherichia coli GN 3481: 6.25 µg/mL (≈ 11.8 µM)
  MIC Escherichia coli K-1: 3.13 µg/mL (≈ 5.89 µM)
  MIC Escherichia coli K-4: 6.25 µg/mL (≈ 11.8 µM)
Shigella flexneri
  MIC Shigella flexneri JS 11215: 25 µg/mL (≈ 47 µM)
  MIC Shigella flexneri JS 11839: 3.13 µg/mL (≈ 5.89 µM)
Shigella sonnei
  MIC Shigella sonnei JS 11232: 25 µg/mL (≈ 47 µM)
  MIC Shigella sonnei JS 11755: 6.25 µg/mL (≈ 11.8 µM)

## CC1(C)S[C@@H]2[C@H](NC(=O)[C@H](NC(=O)N3CCN(C(=O)Nc4ccccc4)C(=O)C3)c3ccccc3)C(=O)N2[C@H]1C(=O)O [Compound 33]
Escherichia coli NIHJ
  MIC Esche--richin coil NIHJ: < 1.57 µg/mL
[3]
  MIC Pseudomonas aeruginosa I.F.C: 50 µg/mL (≈ 84.1 µM)
[2]
  MIC Staphylococcus aureus 209p: < 1.57 µg/mL

## CC1(C)S[C@@H]2[C@H](NC(=O)[C@H](NC(=O)N3CC(=O)N(C(=O)c4ccccc4)CC3=O)c3ccccc3)C(=O)N2[C@H]1C(=O)O [Compound 34]
Klebsiella pneumoniae [1]; Table 3, standard strain
  MIC Klebsiella pneumoniae: 50 µg/mL (≈ 84.2 µM)
Proteus vulgaris 3027; Table 3, standard strain
  MIC Proteus vulgaris 3027: 50 µg/mL (≈ 84.2 µM)
[3]
  MIC Pseudomonas aeruginosa I.F.C: 100 µg/mL (≈ 168 µM)

## CC1(C)S[C@@H]2[C@H](NC(=O)[C@H](NC(=O)N3CC(=O)N(Cc4ccccc4)CC3=O)c3ccccc3)C(=O)N2[C@H]1C(=O)O [Compound 35]
[3]
  MIC Pseudomonas aeruginosa I.F.C: 100 µg/mL (≈ 173 µM)

## CCN1CCN(C(=O)NC(C(=O)NC2C(=O)N3C(C(=O)O)=C(COC(C)=O)CSC23)c2ccccc2)C(=O)C1=O (centres unmarked) [Compound No. 61]
Pseudomonas aeruginosa; Table 6-3, clinical isolate, strain number not given
  MIC Pseudomonas aeruginosa GN: 25 µg/mL (≈ 43.6 µM)
Pseudomonas aeruginosa; Table 6-3, clinical isolate
  MIC Pseudomonas aeruginosa GN4: 12.5 µg/mL (≈ 21.8 µM)

## CN1CCN(C(=O)N[C@@H](C(=O)N[C@@H]2C(=O)N3C(C(=O)[O-])=C(C[n+]4ccccc4)CS[C@H]23)c2ccccc2)C(=O)C1=O [Compound No. 68]
Escherichia coli NIHJ; Table 4, standard strain
  MIC Escherichia coli NIHJ: < 0.79 µg/mL
Klebsiella pneumoniae [1]; Table 4, standard strain
  MIC Klebsiella pneumoniae: < 0.79 µg/mL
Pseudomonas aeruginosa; Table 6-3, clinical isolate
  MIC Pseudomonas aeruginosa GN4: 12.5 µg/mL (≈ 21.6 µM)
  MIC Pseudomonas aeruginosa GN 1035: 50 µg/mL (≈ 86.4 µM)
  MIC Pseudomonas aeruginosa GN 2565: 50 µg/mL (≈ 86.4 µM)

## CC(=O)N1CCN(C(=O)N[C@@H](C(=O)N[C@@H]2C(=O)N3[C@@H]2SC(C)(C)[C@@H]3C(=O)O)c2ccccc2)C(=O)C1 [Example 1, sodium salt of 6-[D(-)-α-(4-acetyl-2-oxo-1-piperazinocarbonylamino)phenylacetamido]penicillanic acid]
Staphylococcus aureus
  MIC Staphylococcus aureus F-1: 12.5 µg/mL
  MIC Staphylococcus aureus F-2: 3.13 µg/mL
  MIC Staphylococcus aureus F-4: 6.25 µg/mL
  MIC Staphylococcus aureus MS 8588: 6.25 µg/mL
  MIC Staphylococcus aureus MS 8596: 3.13 µg/mL
  MIC Staphylococcus aureus MS 8684: 3.13 µg/mL
  MIC Staphylococcus aureus MS 8713: 3.13 µg/mL
Escherichia coli; Table 5-2, clinical isolate
  MIC Escherichia coli GN 3435: 6.25 µg/mL
  MIC Escherichia coli GN 3452: 12.5 µg/mL
  MIC Escherichia coli GN 3481: 12.5 µg/mL
  MIC Escherichia coli K-1: 6.25 µg/mL
  MIC Escherichia coli K-4: 12.5 µg/mL
Shigella flexneri
  MIC Shigella flexneri JS 11215: 100 µg/mL
  MIC Shigella flexneri JS 11839: 3.13 µg/mL
Shigella sonnei
  MIC Shigella sonnei JS 11232: > 200 µg/mL
  MIC Shigella sonnei JS 11755: 12.5 µg/mL

## Cc1nnc(SCC2=C(C(=O)O)N3C(=O)[C@@H](NC(=O)Cn4cnnn4)[C@H]3SC2)s1 [Sodium Cephazolin, reference compound]
Escherichia coli; Table 6-2, clinical isolate
  MIC Escherichia coli GN 3435: 1.56 µg/mL
  MIC Escherichia coli GN 3452: 1.56 µg/mL
  MIC Escherichia coli GN 3481: 1.56 µg/mL
  MIC Escherichia coli K-1: 1.56 µg/mL
  MIC Escherichia coli K-2: 1.56 µg/mL
  MIC Escherichia coli K-4: 3.13 µg/mL
Pseudomonas aeruginosa; Table 6-3, clinical isolate
  MIC Pseudomonas aeruginosa GN4: > 200 µg/mL
Pseudomonas aeruginosa; Table 6-4, clinical isolate
  MIC Pseudomonas aeruginosa S-4: > 200 µg/mL
Klebsiella pneumoniae [4]
  MIC Klebsiella pneumoniae GN 917: 1.56 µg/mL
  MIC Klebsiella pneumoniae GN 4081: 3.13 µg/mL
  MIC Klebsiella pneumoniae GN 4117: 3.13 µg/mL

## CN1CCN(C(=O)NC(C(=O)N[C@@H]2C(=O)N3[C@@H]2SC(C)(C)[C@@H]3C(=O)O)c2cccs2)C(=O)C1=O (some centres unmarked) [compound 58]
Escherichia coli NIHJ
  MIC Esche--richin coil NIHJ: < 1.57 µg/mL
[2]
  MIC Staphylococcus aureus 209p: < 1.57 µg/mL

## CC1(C)S[C@@H]2[C@H](NC(=O)[C@H](N)c3ccccc3)C(=O)N2[C@H]1C(=O)O [drawing 185, reference compound]
Escherichia coli NIHJ
  MIC Esche--richin coil NIHJ: < 1.57 µg/mL
[2]
  MIC Staphylococcus aureus 209p: < 1.57 µg/mL

## CC1(C)S[C@@H]2[C@H](NC(=O)C(c3ccccc3)S(=O)(=O)O)C(=O)N2[C@H]1C(=O)O (some centres unmarked) [drawing 187, reference compound]
Escherichia coli NIHJ
  MIC Esche--richin coil NIHJ: 1.57 µg/mL (≈ 3.79 µM)

## CC(=O)N1CCN(C(=O)N[C@@H](C(=O)N[C@@H]2C(=O)N3[C@@H]2SC(C)(C)[C@@H]3C(=O)O)c2ccccc2)C(=O)C1 [drawing 188]
Klebsiella pneumoniae [1]; Table 3, standard strain
  MIC Klebsiella pneumoniae: 12.5 µg/mL (≈ 24.2 µM)
Proteus vulgaris 3027; Table 3, standard strain
  MIC Proteus vulgaris 3027: 3.13 µg/mL (≈ 6.05 µM)

## CC(=O)OCC1=C(C(=O)O)N2C(=O)[C@@H](NC(=O)[C@H](N)c3ccccc3)[C@H]2SC1 [drawing 247, reference compound]
Klebsiella pneumoniae [1]; Table 4, standard strain
  MIC Klebsiella pneumoniae: < 1.57 µg/mL
Proteus vulgaris 3027; Table 4, standard strain
  MIC Proteus vulgaris 3027: 100 µg/mL (≈ 247 µM)

## Cc1nnc(SCC2=C(C(=O)O)N3C(=O)[C@@H](NC(=O)Cn4cnnn4)[C@H]3SC2)s1 [drawing 249, reference compound]
Klebsiella pneumoniae [1]; Table 4, standard strain
  MIC Klebsiella pneumoniae: 1.57 µg/mL (≈ 3.45 µM)
Proteus vulgaris 3027; Table 4, standard strain
  MIC Proteus vulgaris 3027: 200 µg/mL (≈ 440 µM)
